This note sets out measurements from ChEMBL document CHEMBL5131410, “Design and discovery of C2-fluoroalkyl iminothiazine dioxides as BACE inhibitors” (Bioorg Med Chem Lett, 2022).

Structures are written as SMILES. A value given as a limit tells only on which side of the number the result lay.

For series [1], the system named is Rattus norvegicus. The series is described as follows: Antialzheimer activity against in po dosed rat assessed as decrease in amyloid beta 40 in CSF measured after 3 hrs. Format: functional.
For series [2], the system named is Rhesus monkey. The series is described as follows: Antialzheimer activity against in po dosed rhesus monkey assessed as decrease in amyloid beta 40 in CSF measured after 3 hrs. The following applies: Macaca mulatta. Format: functional.
The test system of series [3] is Rhesus monkey. The series is described as follows: Antialzheimer activity against in po dosed rhesus monkey assessed as plasma concentration required to 50 % decrease in amyloid beta 40 in CSF measured after 3 hrs. It is filed as functional, organism-based. Conditions: Macaca mulatta.
Series [4] concerns Rattus norvegicus. The series is described as follows: Antialzheimer activity against in po dosed rat assessed as plasma concentration required to 50 % decrease in amyloid beta 40 in CSF measured after 3 hrs. It is filed as functional, organism-based.
Series [5] has as its target T1, Beta-secretase 1 (Homo sapiens, UniProt P56817). The series is described as follows: Inhibition of BACE1 (unknown origin) expressed in HEK293 cells expressing human APP with Swedish and London familial AD mutation. It is filed as cell-based.
Series [6] concerns the target T1, Beta-secretase 1. The series is described as follows: Inhibition of BACE1 (unknown origin).
The subject of series [7] is Rattus norvegicus. The series is described as follows: Antialzheimer activity against in rat assessed as decrease in amyloid beta 40 in CSF at 10 mg/kg, po and measured after 3 hrs relative to control. It is filed as functional. The arrangement: scale not given: the % may be the effect or the level left.
Series [8] is described as follows: Apparent permeability in pig LLC-PK1 cells. It is filed as ADME, cell-based, Sus scrofa.
A short description of series [9]: Dissociation constant, pKa of compound by UV-metric spectrophotometric analysis. Format: physicochemical.
A short description of series [10]: Lipophilicity, log D of compound at pH 7 by HPLC analysis. Format: physicochemical. Conditions: buffer.
Series [11] has as its target T2, Voltage-gated inwardly rectifying potassium channel KCNH2 (Homo sapiens, UniProt Q12809). The series is described as follows: Displacement of MK499 from human ERG expressed in HEK membrane by radio ligand binding competition assay. Format: toxicity, cell membranes, Cell membrane.
The subject of series [12] is MDR1 (rat). The series is described as follows: Efflux ratio of apparent permeability across basolateral to apical membrane to apical to basolateral membrane in pig LLC-PK1 cells expressing rat MDR1 at 1 uM. It is filed as ADME, cell-based, Sus scrofa.
For series [13], the system named is MDR1 (human). The series is described as follows: Efflux ratio of apparent permeability across basolateral to apical membrane to apical to basolateral membrane in pig LLC-PK1 cells expressing human MDR1 at 1 uM. It is filed as ADME, cell-based, Sus scrofa.
Series [14] deals with Cathepsin D (Homo sapiens, UniProt P07339). The series is described as follows: Inhibition of human cathepsin D.
Series [15] deals with T3, Cathepsin E (Homo sapiens, UniProt P14091).
T3 sequence (P14091 whole entry): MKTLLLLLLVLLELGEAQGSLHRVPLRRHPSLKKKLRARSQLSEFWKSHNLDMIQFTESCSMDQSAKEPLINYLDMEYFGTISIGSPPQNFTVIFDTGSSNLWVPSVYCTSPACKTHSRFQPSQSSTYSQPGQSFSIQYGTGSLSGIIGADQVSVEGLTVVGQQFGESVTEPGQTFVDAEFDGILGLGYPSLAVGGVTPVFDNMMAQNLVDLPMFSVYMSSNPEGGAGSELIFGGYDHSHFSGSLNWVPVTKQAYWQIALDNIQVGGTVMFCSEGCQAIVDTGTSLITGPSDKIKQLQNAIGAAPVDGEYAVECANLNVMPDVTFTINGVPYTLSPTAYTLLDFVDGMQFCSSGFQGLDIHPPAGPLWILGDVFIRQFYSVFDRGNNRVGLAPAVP
The series is described as follows: Inhibition of human cathepsin E.

Series [16] has as its target Voltage-dependent L-type calcium channel subunit alpha-1C (Homo sapiens, UniProt Q13936). The series is described as follows: Inhibition of CAV1.2 (unknown origin).
Series [17] addresses T4, Renin (Homo sapiens, UniProt P00797).
T4 sequence (P00797 whole entry): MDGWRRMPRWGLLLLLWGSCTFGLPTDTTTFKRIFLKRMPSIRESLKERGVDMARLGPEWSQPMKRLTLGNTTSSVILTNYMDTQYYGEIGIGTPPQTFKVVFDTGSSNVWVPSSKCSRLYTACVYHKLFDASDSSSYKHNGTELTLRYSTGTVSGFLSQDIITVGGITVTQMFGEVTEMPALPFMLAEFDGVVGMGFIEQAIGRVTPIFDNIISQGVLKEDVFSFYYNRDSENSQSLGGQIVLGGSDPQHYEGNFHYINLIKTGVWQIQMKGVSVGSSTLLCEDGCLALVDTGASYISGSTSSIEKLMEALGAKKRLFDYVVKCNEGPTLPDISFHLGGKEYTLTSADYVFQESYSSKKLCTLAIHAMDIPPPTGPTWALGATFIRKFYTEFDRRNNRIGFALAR
The series is described as follows: Inhibition of human renin.

Series [18] has as its target Sodium channel protein type 2 subunit alpha (Homo sapiens, UniProt Q99250). The series is described as follows: Inhibition of NaV1.2 (unknown origin).
Series [19] in a line: Drug concentration in rat plasma at 10 mg/kg, po after 3 hrs. It is filed as ADME, organism-based.
Series [20] can be described thus: Drug concentration in rat CSF at 10 mg/kg, po after 3 hrs. Conditions: read-out: Ct. Format: ADME, organism-based, Cerebrospinal fluid.
Series [21] in a line: Ratio of drug level in brain to plasma in rat. It is filed as ADME. Conditions: read-out: BPR.
Series [22] addresses T2, Voltage-gated inwardly rectifying potassium channel KCNH2. The series is described as follows: Inhibition of human ERG expressed in HEK cells by voltage clamp assay. It is filed as toxicity, cell-based.
Series [23] is described as follows: Free drug concentration in human plasma. Format: ADME, cell-free.
The nature of series [24]: Free drug concentration in cynomolgus monkey plasma. Format: ADME, cell-free, Macaca fascicularis.
Series [25] in a line: Free drug concentration in rat plasma. Format: ADME, cell-free.

T1 sequence (P56817 whole entry): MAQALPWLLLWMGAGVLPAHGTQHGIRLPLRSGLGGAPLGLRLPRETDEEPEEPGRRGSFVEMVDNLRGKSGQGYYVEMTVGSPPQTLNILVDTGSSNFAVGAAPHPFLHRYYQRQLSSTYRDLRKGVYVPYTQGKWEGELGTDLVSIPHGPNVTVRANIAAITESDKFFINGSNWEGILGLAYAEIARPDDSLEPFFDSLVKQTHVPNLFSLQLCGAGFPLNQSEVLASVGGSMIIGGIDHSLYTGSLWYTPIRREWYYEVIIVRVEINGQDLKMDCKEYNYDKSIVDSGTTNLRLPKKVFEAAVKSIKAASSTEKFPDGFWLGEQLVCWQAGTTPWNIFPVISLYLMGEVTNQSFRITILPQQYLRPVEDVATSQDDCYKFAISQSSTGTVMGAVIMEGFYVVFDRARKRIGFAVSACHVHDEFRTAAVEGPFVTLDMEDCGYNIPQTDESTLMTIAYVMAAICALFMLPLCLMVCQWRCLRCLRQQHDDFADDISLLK
T2 sequence (Q12809 whole entry): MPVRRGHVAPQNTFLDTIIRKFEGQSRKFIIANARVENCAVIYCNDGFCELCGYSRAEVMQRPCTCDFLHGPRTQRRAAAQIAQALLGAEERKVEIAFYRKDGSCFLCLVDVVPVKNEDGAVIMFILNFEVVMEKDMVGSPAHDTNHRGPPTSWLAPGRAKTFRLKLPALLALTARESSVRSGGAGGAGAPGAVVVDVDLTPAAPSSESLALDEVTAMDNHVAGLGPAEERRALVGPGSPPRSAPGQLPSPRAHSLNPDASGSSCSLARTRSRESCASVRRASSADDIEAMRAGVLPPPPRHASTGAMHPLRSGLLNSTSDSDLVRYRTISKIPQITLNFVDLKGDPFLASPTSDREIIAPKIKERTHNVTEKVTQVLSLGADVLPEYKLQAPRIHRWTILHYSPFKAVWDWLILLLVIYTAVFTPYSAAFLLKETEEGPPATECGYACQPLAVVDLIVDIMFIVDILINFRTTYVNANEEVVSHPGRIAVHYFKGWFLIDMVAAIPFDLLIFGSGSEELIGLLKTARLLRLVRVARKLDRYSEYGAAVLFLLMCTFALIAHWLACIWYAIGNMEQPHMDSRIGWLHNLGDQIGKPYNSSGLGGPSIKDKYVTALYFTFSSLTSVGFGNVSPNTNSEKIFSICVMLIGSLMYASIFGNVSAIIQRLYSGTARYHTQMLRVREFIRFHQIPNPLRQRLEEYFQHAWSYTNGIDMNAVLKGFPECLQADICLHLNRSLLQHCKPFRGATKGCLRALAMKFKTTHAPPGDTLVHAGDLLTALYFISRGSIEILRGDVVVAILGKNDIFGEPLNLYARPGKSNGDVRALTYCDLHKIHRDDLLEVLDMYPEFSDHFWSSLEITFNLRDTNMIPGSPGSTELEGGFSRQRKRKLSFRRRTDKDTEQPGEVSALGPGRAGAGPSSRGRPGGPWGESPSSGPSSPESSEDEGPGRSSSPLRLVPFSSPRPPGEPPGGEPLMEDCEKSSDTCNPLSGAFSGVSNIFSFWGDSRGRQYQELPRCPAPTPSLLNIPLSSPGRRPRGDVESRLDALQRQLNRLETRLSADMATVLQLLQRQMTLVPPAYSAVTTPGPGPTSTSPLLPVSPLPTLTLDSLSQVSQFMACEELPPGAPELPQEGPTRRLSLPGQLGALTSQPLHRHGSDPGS
Sequence of Voltage-dependent L-type calcium channel subunit alpha-1C (Q13936 whole entry): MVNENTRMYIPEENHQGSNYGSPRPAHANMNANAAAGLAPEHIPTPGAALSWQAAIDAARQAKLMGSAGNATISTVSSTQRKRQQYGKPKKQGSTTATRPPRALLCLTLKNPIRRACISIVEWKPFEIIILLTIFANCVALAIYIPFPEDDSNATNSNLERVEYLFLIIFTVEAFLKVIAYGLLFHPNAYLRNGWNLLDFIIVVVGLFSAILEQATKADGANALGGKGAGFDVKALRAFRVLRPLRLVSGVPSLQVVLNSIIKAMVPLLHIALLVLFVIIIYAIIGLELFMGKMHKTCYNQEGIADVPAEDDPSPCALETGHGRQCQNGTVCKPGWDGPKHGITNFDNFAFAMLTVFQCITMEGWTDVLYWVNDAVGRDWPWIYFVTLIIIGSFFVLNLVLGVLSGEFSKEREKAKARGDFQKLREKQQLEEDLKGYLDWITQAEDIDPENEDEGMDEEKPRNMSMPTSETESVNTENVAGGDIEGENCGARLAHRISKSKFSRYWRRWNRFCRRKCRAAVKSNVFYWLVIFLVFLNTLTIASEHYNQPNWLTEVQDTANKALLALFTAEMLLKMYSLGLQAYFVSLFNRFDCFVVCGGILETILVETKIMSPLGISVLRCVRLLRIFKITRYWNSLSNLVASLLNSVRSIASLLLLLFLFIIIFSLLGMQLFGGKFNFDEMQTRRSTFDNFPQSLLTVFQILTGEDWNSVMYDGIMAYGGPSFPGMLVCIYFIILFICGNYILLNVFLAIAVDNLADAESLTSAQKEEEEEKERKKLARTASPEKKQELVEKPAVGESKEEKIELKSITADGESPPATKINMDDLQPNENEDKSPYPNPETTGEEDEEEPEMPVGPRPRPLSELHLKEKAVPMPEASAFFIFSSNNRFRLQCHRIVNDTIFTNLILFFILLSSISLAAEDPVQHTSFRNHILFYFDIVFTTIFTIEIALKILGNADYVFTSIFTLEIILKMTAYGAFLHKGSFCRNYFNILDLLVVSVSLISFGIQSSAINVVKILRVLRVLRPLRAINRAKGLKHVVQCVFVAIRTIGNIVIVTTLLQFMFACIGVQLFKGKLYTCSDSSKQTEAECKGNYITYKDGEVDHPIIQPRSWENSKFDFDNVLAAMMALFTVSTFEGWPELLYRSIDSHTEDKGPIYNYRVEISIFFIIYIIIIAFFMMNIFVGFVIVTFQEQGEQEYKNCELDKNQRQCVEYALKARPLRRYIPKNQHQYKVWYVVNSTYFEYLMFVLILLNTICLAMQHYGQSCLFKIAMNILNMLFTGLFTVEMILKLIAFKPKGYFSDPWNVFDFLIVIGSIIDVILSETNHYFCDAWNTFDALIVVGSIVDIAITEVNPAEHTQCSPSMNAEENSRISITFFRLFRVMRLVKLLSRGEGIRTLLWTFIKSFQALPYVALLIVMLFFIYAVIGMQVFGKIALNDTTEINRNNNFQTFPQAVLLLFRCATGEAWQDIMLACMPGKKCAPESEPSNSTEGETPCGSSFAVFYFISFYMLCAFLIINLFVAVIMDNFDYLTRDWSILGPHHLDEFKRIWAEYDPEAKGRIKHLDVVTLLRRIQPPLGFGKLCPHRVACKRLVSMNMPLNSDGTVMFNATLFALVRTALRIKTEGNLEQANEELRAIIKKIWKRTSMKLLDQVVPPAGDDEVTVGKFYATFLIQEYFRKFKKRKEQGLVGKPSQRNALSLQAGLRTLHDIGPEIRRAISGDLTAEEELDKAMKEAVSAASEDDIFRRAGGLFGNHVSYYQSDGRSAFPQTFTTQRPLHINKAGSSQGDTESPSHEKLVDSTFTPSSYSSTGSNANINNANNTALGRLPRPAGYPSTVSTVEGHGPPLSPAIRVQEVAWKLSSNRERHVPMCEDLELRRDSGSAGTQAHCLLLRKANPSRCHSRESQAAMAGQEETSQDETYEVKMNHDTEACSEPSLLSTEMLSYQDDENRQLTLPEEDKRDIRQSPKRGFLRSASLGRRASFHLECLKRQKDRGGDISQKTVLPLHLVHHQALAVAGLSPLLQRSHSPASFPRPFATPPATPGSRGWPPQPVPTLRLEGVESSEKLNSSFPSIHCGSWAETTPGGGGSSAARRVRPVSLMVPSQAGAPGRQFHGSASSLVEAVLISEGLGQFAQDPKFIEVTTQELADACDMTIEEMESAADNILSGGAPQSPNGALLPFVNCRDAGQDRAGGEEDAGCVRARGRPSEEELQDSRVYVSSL
Sequence of Cathepsin D (P07339 65-162 limits assumed): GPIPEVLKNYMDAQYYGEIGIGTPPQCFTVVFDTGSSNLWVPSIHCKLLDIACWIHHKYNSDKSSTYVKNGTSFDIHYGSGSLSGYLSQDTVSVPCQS
Sequence of Cathepsin D (P07339 169-412 limits assumed): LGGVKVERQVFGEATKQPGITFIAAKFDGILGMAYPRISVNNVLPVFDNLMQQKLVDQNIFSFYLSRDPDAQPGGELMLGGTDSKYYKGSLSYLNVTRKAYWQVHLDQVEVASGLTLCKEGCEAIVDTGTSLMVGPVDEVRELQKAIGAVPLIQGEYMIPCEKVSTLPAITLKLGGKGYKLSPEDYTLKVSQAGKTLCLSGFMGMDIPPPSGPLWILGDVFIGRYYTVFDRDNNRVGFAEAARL

A word on the ED50: it is the dose at which the effect has come halfway, by size or by number of responders. What is called EC50 is the concentration that produces a half-maximal response. On to `COc1cnc(C(=O)Nc2ccc(F)c([C@]3(C)CS(=O)(=O)C(C)(C)C(N)=N3)c2)cn1`, for which the ED50 worked out at 1.2 mg/kg in series [1] and 0.3 mg/kg in series [2]. For the same molecule, the half-maximal effective concentration (EC50) in [3] worked out at 23 nM; in [4], 15 nM.
For orientation: IC50 means the concentration that inhibits the measured activity by half. One may read the Ki as a measure of affinity in units of concentration, obtained from inhibition or displacement. Consider `COc1cnc(C(=O)Nc2ccc(F)c([C@]3(C)CS(=O)(=O)[C@](C)(C(F)F)C(=N)N3)c2)cn1`, for which, in series [5], half-maximal inhibition (IC50) was put at 171 nM. This molecule also had a Ki in series [6] of 12 nM.
For `C[C@@]1(c2nc(NC(=O)c3ccc(C#N)cn3)ccc2F)CS(=O)(=O)[C@](C)(CF)C(=N)N1` the same measures were 7 nM and 3 nM.
For `CC1(C)C(=N)N[C@](C)(c2nc(NC(=O)c3ccc(C#N)cn3)ccc2F)CS1(=O)=O`, the Activity in series [7] is given as 88%.
Turning to `Cc1cc(C#N)cnc1C(=O)Nc1ccc(F)c([C@]2(C)CS(=O)(=O)[C@@](C)(CF)C(=N)N2)n1`, in [7], the Activity came out at 92%. The molecule further gave an IC50 in series [5] of 1 nM. The inhibitory constant (Ki) in series [6] came out at 1 nM.
`C[C@]1(CF)C(=N)N[C@](C)(c2nc(NC(=O)c3ccc(C#N)cn3)ccc2F)CS1(=O)=O`: the IC50 in series [5] is 3 nM. In [6], this molecule registered an inhibitory constant (Ki) of 2 nM.
For the molecule `Cc1cc(C#N)cnc1C(=O)Nc1ccc(F)c([C@]2(C)CS(=O)(=O)[C@](C)(C(F)F)C(=N)N2)n1`, the Activity in [7] worked out at 80%. For the same molecule, in series [5], it took 11 nM to reach half-maximal inhibition (IC50). The same molecule gave an inhibition constant (Ki) in series [6] of 3 nM.
In turn, `COc1cnc(C(=O)Nc2ccc(F)c([C@]3(C)CS(=O)(=O)[C@](C)(CF)C(=N)N3)c2)cn1` returned a half-inhibitory concentration (IC50) in series [5] of 14 nM. In series [6], this molecule showed a Ki of 4 nM.
As usually defined, the Papp is a coefficient for how fast a substance crosses the barrier. As usually defined, the pKa is the pH at which an ionisable group is half protonated. Usually logD stands for the decadic logarithm of the distribution of all forms, ionised or not, between an organic phase and buffer at a given pH. The term efflux ratio denotes the permeability from basolateral to apical divided by that in the opposite direction, in the common usage. As for `C[C@@]1(C(F)F)C(=N)N[C@](C)(c2nc(NC(=O)c3ccc(C#N)cn3)ccc2F)CS1(=O)=O`, the apparent permeability coefficient (Papp) in series [8] was 32.7 ×10⁻⁶ cm/s. This molecule gave a pKa in series [9] of 5.95. The pH-dependent lipophilicity (logD) in series [10] was 2.5. The values for the half-inhibitory concentration (IC50) in [11] and in series [5] were 24200 nM and 78 nM, respectively. This molecule came in with a Ki in [6] of 10 nM. Further, the efflux ratio at 1 µM came out at 3.7 in series [12] and 0.8 in [13].
For the molecule `Cc1cc(C#N)cnc1C(=O)Nc1ccc(F)c([C@]2(C)CS(=O)(=O)[C@@](C)(C(F)F)C(=N)N2)n1`, the inhibition constant Ki in [14] is 5880 nM; in [15], > 30500 nM; in series [6], 1 nM; in [17], > 19100 nM. In series [7], the Activity is on record as 91%. Further, the values for the ED50 in series [1] and in [2] were 3 mg/kg and < 3 mg/kg, respectively. Moreover, the EC50 in [3] amounted to 20 nM; in series [4], 130 nM. Besides, the IC50 in [5] is 3 nM; in series [16] it was 7060 nM; in series [18], > 30000 nM.
As to `Cc1cc(C#N)cnc1C(=O)Nc1ccc(F)c([C@]2(C)CS(=O)(=O)[C@](C)(CF)C(=N)N2)n1`, the Activity in series [7] was determined as 68%. Further, the concentration for half-maximal inhibition (IC50) in series [5] amounted to 2 nM. Further, the affinity in series [6] corresponds to a Ki of 2 nM.
`COc1cnc(C(=O)Nc2ccc(F)c([C@]3(C)CS(=O)(=O)[C@@](C)(C(F)F)C(=N)N3)c2)cn1` yielded a half-maximal inhibitory concentration (IC50) in series [5] of 30 nM. For the same molecule, the Ki in [6] is 3 nM.
`C[C@@]1(c2nc(NC(=O)c3ccc(C#N)cn3)ccc2F)CS(=O)(=O)[C@@](C)(C(F)F)C(=N)N1`: in series [8], the Papp was determined as 28.6 ×10⁻⁶ cm/s. In series [7], the Activity is 80%. In series [9], this molecule displayed a pKa of 6.19. In addition, the concentration at 3 h in series [19] came to 154 nM; in [20], 8 nM. In series [10], the logD was 2.3. Also, the figures for the IC50 in series [11] and in series [5] were 2420 nM and 11 nM, respectively. This molecule also had a Ki in series [6] of 3 nM. Besides, the efflux ratio at 1 µM in [12] was found to be 8.6; in series [13], 1.
`COc1cnc(C(=O)Nc2ccc(F)c([C@]3(C)CS(=O)(=O)[C@@](C)(CF)C(=N)N3)c2)cn1` had a half-maximal inhibitory concentration (IC50) in [5] of 12 nM. Also, the affinity in series [6], expressed as Ki, was 5 nM.
The term fraction unbound denotes the share of the substance not bound to proteins or other matrix. `CN1C(N)=N[C@](C)(c2cc(NC(=O)c3ccc(F)cn3)ccc2F)CS1(=O)=O` [VERUBECESTAT]: the apparent permeability coefficient (Papp) in series [8] came to 23 ×10⁻⁶ cm/s. Further, the Kp in [21] is 0.23. In series [22], this molecule displayed an IC50 of 2200 nM. The median effective dose (ED50) was 0.69 mg/kg in series [1] and < 3 mg/kg in [2]. Further, in series [9], the pKa was 7.5. The fraction unbound in [23] amounted to 0.24; in series [24] it was 0.18; in series [25], 0.21. The EC50 in series [3] amounted to 41 nM; in series [4], 110 nM.
